Test: gradient 5% acetonitrile 3 min, to 50% in 2 min, to 85% in 15 min, held 3 min, 100 µL/min
Conditions: column: Zorbax Extend-C18 2.1 x 50 mm; eluents: water / acetonitrile, 0.1% formic acid
Method in brief: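 The system's dead and dwell volumes were 40 μL and 900 μL, with a Zorbax Extend-C18 column (2.1 × 50 mm, 1.8 μm) run at 100 μL/min in water and acetonitrile containing 0.1% formic acid each. Pure standards were analyzed in mixtures of ~100 molecules by HPLC–quadrupole time-of-flight mass spectrometry in positive and negative ionization mode. Retention time was assigned from computationally picked, manually inspected adduct peaks.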

| RP-LC retention time | Structure (SMILES) |
| --- | --- |
| 668 s | O=C1CC(c2ccccc2)N(Cc2ccc3c(c2)CCO3)CCCCCCN1 (stereo not drawn) |
| 801 s | O=C(NCc1ccc(F)c(Cl)c1)c1cn(-c2ccc(NC(=O)C3CC3)cn2)cn1 |
| 974 s | CCc1ccccc1NC(=O)C1CCCN(S(=O)(=O)c2cc(-c3noc(C)n3)cs2)C1 (stereo not drawn) |
| 687 s | O=C(NCCn1c(CCc2ccccc2)nc2cccnc21)c1cccs1 |
| 1130 s | Cc1ccc2oc(SCc3noc(CCC(=O)Nc4nc(-c5ccccc5)cs4)n3)nc2c1 |
| 949 s | Cc1cc(C)cc(Nc2nc(C)cc3nn(CC(=O)NC(C)C)c(=O)n23)c1 |
| 584 s | COc1ccc(CN2CCC[C@H]2c2nc(C3CCOCC3)n[nH]2)c(Cl)c1OC |
| 1330 s | Cc1cc(C)c(S(=O)(=O)N2CCCC2c2nc(-c3ccccc3C)no2)c(C)c1 (stereo not drawn) |
| 745 s | COc1cccc(NC(=O)Cn2nc3c(N(C)C4CCCCC4)nccn3c2=O)c1 |
| 1070 s | O=c1c2sccc2n(Cc2nc(-c3ccc(Cl)cc3)no2)c(=O)n1-c1cccc(F)c1 |
| 810 s | COc1cccc(-c2noc(Cn3ccn(-c4ccccc4OC)c(=O)c3=O)n2)c1 |
| 768 s | CC(=O)N1CCc2sc(C(=O)NCc3cccc(Br)c3)cc2C1 |
| 682 s | COc1ccc(OC)c(CNC(=O)C2CCN(Cc3cn(C)c4ccc(OC)cc34)CC2)c1 |
| 808 s | Cc1ccc(-n2c(N3CCC(C(=O)NCC4CC4)CC3)nc3ccsc3c2=O)cc1 |
| 728 s | CCN1CCn2cc(S(=O)(=O)Nc3cccc(Cl)c3)cc2C1=O |
| 670 s | COCCN1CCn2cc(S(=O)(=O)Nc3cccc(OC)c3)cc2C1=O |
| 668 s | COCCn1c(CC2CCN(S(=O)(=O)c3ccc(OC)cc3)C2)nc2cccnc21 (stereo not drawn) |
| 795 s | Cc1ccc(CCNC(=O)c2ncn3c2C(=O)N(C2CC2)C(C)(C(=O)NC2CCCC2)C3)cc1 (stereo not drawn) |
| 858 s | CS(=O)(=O)c1nc2ccc(NS(=O)(=O)c3cc(F)cc(F)c3)cc2s1 |
| 923 s | Cn1nc(C(=O)N2CCC3(CC2)N=C(c2cccc(Br)c2)NO3)c2ccccc21 |

| RP-LC retention time | Structure (SMILES) |
| --- | --- |
| 827 s | O=C(Cn1nc2c(N3CCOCC3)nccn2c1=O)Nc1cc(C(F)(F)F)ccc1Cl |
| 1020 s | COc1ccccc1N1CCN(c2cc(SCC(=O)NC(C)CCc3ccccc3)ncn2)CC1 (stereo not drawn) |
| 657 s | COc1ccc(OCC(=O)N2CCc3c(c(C(=O)N4CCCC(C(=O)NC5CC5)C4)nn3C)C2)cc1 (stereo not drawn) |
| 1170 s | Cc1oc(C(C)C)nc1C(=O)Nc1ccc(F)c(Cl)c1 |
| 900 s | Cc1ccc(Nc2nc(-c3ccccc3)c(CC(=O)O)s2)cc1 |
| 912 s | CC(=O)c1cccc(NC(=O)Cn2c(-c3ccccc3)nc(C)cc2=O)c1 |
| 768 s | COc1ccc(-c2nnc(-c3ccc(OC)c(S(=O)(=O)N4CCOCC4)c3)o2)cc1OC |
| 564 s | Cc1sc2ccn(C)c(=O)c2c1C(=O)N1CCN(c2ccccn2)CC1 |
| 646 s | COCCC1(NS(C)(=O)=O)CCN(C(=O)NCC(C)C)CC1 |
| 800 s | Cc1cc(NC(=O)C2CCN(C(=O)C3(c4cccs4)CCCC3)CC2)no1 |
| 643 s | O=C(COc1ccc(Cl)cc1)N1CCN(c2nc(CN3CCOCC3)cs2)CC1 |
| 814 s | O=C(NCC1CC1)C1CCN(c2nc3ccsc3c(=O)n2Cc2ccccc2)CC1 |
| 732 s | O=C(c1ccco1)N1CCCC(OCc2nc(C3CC3)no2)C1 (stereo not drawn) |
| 717 s | COCc1noc([C@@H]2CC(F)(F)CN2C(=O)c2coc(C)n2)n1 |
| 748 s | O=C(NCc1csc(C2CCCN(C(=O)C3CCCCC3)C2)n1)C1CC1 (stereo not drawn) |
| 844 s | Cc1ccc(NC(=O)C2CCCN(C(=O)C3Sc4ccccc4NC3=O)C2)cc1F (stereo not drawn) |
| 1110 s | O=C(NC1CCCCCC1)C1CCN(S(=O)(=O)c2cc(-c3noc(C4CCC4)n3)cs2)CC1 |
| 946 s | O=C(c1cccc(F)c1)N1CCCC1c1nc(-c2ccccc2)no1 (stereo not drawn) |
| 813 s | Cc1nsc2ncc(C(=O)N3CCOCC3)c(N3CCC(C(=O)Nc4ccccc4Br)CC3)c12 |

Second part, the compound before the results:

| Structure (SMILES) | RP-LC retention time |
| --- | --- |
| Cc1cc(OCCCS(C)(=O)=O)cc(C)c1-c1cccc(COc2ccc3c(c2)OC[C@H]3CC(=O)O)c1 | 1040 s |
| CCCC(NC(=O)c1ccc(OC)c(OC)c1)C(=O)Nc1nc2ccccc2[nH]1 (stereo not drawn) | 650 s |
| COCC(=O)N(CC(=O)N1CCc2sccc2C1COc1ccc(Cl)cc1)C(C)C (stereo not drawn) | 909 s |
| CC1CCN(C(=O)c2ccc3c(=O)n4c(nc3c2)CCCC4)CC1 | 707 s |
| CC(C)(Oc1ccc(Cl)cc1)C(=O)NCC1(O)CCc2ccccc21 (stereo not drawn) | 736 s |
| O=C(CN1CCN(C(=O)Nc2ccc(Cl)cc2)CC1=O)NC1CCCCC1 | 724 s |
| COc1cccc(C2Cn3nnc(-c4nc(-c5cccc(F)c5)no4)c3CO2)c1 (stereo not drawn) | 1130 s |
| O=S(=O)(c1ccc(Cl)cc1)N1CCN(c2cnn3c(C4CC4)nnc3c2)CC1 | 749 s |
| Cc1cccc(CN2N=C(C(=O)N3CCC(C)CC3)S(=O)(=O)c3ccccc32)c1 | 1090 s |
| Cc1cccc(-c2noc(-c3nc(C)no3)n2)c1 | 1050 s |
| CSc1nnc(-c2nn(C)c3c2CN(C(=O)c2cccc(F)c2)CC3)n1C | 693 s |
| COc1ncc(C(=O)N2CCc3ccccc3C2)cn1 | 729 s |
| O=C(c1c(F)cccc1Cl)N1CCc2nc(-c3ccc(F)cc3)ncc2C1 | 1020 s |
| CCc1nc2c(c(=O)n1CC(=O)Nc1cc(C)ccc1C)CN(Cc1ccccc1)CC2 | 679 s |
| CC1=C(C(=O)Nc2ccccc2F)C(c2ccccc2Br)NC(=O)N1 (stereo not drawn) | 672 s |
| O=C(c1noc2ccc(S(=O)(=O)N3CCCc4ccccc43)cc12)N1CCCC1 | 1060 s |
| O=C(CCn1nnc2cc(-c3noc(-c4ccc(Cl)cc4)n3)ccc21)N1CCOCC1 | 936 s |
| CC(C)NC(=O)CN1CCN(c2cc(C(=O)O)c3cc(NC(=O)c4ccc(F)cc4)ccc3n2)CC1 | 603 s |
| CC(C)COC(=O)c1ccc(NC(=O)C2C3CCC(C3)C2C(=O)O)cc1 (stereo not drawn) | 901 s |
| Cc1oc(C2CCN(C(=O)Nc3ccc(Cl)cc3F)CC2)nc1C(=O)N(C)C | 714 s |
| Cc1ccn2c(Nc3ccc4c(c3)OCCO4)c(-c3cccc(Br)c3)nc2c1 | 739 s |
| CSc1cccc(NC(=O)Cn2c(N3CCOCC3)nc(C)cc2=O)c1 | 694 s |
| O=C(c1cnccn1)N1CCc2nn(CC3CC3)c(=O)n2CC1 | 598 s |
| Cc1cc(C(=O)N2CCCn3ccnc3C2C2CCCC2)on1 (stereo not drawn) | 599 s |
| O=C(O)c1cnc(NCc2ccccn2)nc1-c1cccc(Cl)c1 | 613 s |

| Structure (SMILES) | RP-LC retention time |
| --- | --- |
| Cc1ccc(C(O)Cn2ccn3nc(-c4ccc(F)cc4)cc3c2=O)cc1 (stereo not drawn) | 966 s |
| Fc1ccc(Cn2cc(-c3noc(-c4ccc5c(c4)OCO5)n3)nn2)cc1 | 937 s |
| Cc1ccc(-n2nc(N3CCN(C(=O)Nc4ccccc4)CC3)ccc2=O)cc1 | 780 s |
| CCCn1c(=O)c(N2CCC(NC(=O)Nc3ccc(Cl)cc3)CC2)nc2ccccc21 | 1090 s |
| CC(=O)Nc1ccc(CCc2nc3ccc(C(=O)NCc4ccc5c(c4)OCO5)cc3[nH]2)cc1 | 618 s |
| Cc1ccc(NC(=O)CC2COc3ccccc3NC2=O)cc1F (stereo not drawn) | 769 s |
| O=C(Cc1ccc(F)cc1)N1CCN(c2cc(-c3cccs3)[nH]n2)CC1 | 782 s |
| Cc1ccc2c(Nc3ccc(Cl)c(F)c3)c(C(=O)N3CCSCC3)cnc2n1 | 651 s |
| CCc1cnn2c(NCc3ccc[n+]([O-])c3)cc(N3CCCC[C@H]3CCO)nc12 | 637 s |
| O=C(C1=NN(Cc2ccccc2)c2ccccc2S1(=O)=O)N1CCCC1 | 784 s |
| COCc1nnc(NC(=O)c2ccccc2OCc2nc(-c3ccccc3)no2)s1 | 1080 s |
| Cc1cccc(N2CCN(Cc3nc(-c4ccc(N5CCCC(C)C5)nc4)no3)CC2)c1C (stereo not drawn) | 1260 s |
| CN(C)c1ccc2c(c1)CN(C(=O)C1COc3ccccc3O1)CCO2 (stereo not drawn) | 679 s |
| CCC(=O)N1CCc2ccccc2C1C(=O)NCCCN1CCCC1=O (stereo not drawn) | 646 s |
| Cc1ccc(C)c(N2CCN(c3ccnc(SCC(=O)Nc4ccc(F)cc4C)n3)CC2)c1 | 1010 s |
| Cc1nn(C2CCS(=O)(=O)C2)c(C)c1N1CCN(C(=O)c2cc3ccccc3[nH]2)CC1 (stereo not drawn) | 747 s |
| COc1ccc2[nH]cc(CCN3CC(C(=O)Nc4ccc(Cl)cc4)CC3=O)c2c1 (stereo not drawn) | 829 s |
| COc1cccc(C(=O)NCCCc2ccc(N(C)C)cc2)c1OC | 574 s |
| c1ccc(-c2ccc(CNCC3CCCO3)o2)cc1 (stereo not drawn) | 642 s |
| Cc1ccc2nc(C)cc(C(=O)NC3CC3)c2c1 | 586 s |
| CCNc1nc(C)cc(N2CCN(C(=O)Nc3ccc(CC)cc3)CC2)n1 | 702 s |
| O=C(c1cn2cc(Cl)ccc2n1)N1CCN(c2ccccc2F)CC1 | 833 s |
| O=C(NCc1ccco1)C1CCN(c2ncccc2-c2nc(-c3ccc(Cl)cc3)no2)CC1 | 1090 s |
| Cc1ccc(-c2nc3cnccn3c2NCCC(=O)NCC2CC2)cc1 | 636 s |
